This is an account of results in patent US6458823B1, “Diaminopyrazoles” (Wyeth, priority 1998, dated 2002).

Series [1] deals with Isolated Rat Bladder Strips. Kind of series: Inhibition of contractions in isolated rat bladder strips (KCl-enhanced contractile activity). The note with it: 0.5 h, 15 mM KCl added, contractile activity measured in last minute of 30 minute challenge. On the set-up: species or system Sprague-Dawley rats. On the procedure: Sprague-Dawley rats (150-200 g) are rendered unconscious by CO2 asphyxiation and then euthanized by cervical dislocation. The bladder is removed into warm (37° C.) physiological salt solution (PSS) of the following composition (mM): NaCl, 118.4; KCI, 4.7; CaCl2, 2.5; MgSO4, […]; NaHCO3, 24.9; KH2PO4, 1.2; glucose, 11.1; EDTA, 0.023; gassed with […]; pH 7.4. The bladder is opened and then cut into strips 1-2 mm in width and 7-10 nmm in length. The strips are subsequently suspended in a 10 mL tissue bath under an initial resting tension of 1.5 g. The strips are held in place by two surgical clips one of which is attached to a fixed hook while the other is attached to an isometric force transducer. […] The carbachol is then washed out and the tissue allowed to relax to its resting level of activity. Following a further 30 min period of recovery an additional 15 mM KCl are introduced into the tissue bath. This increase in KCl concentration results in a large increase in the amplitude of spontaneous contractions (and initiation of contractions in previously quiescent strips) superimposed upon a small increase in basal tone. Following stabilization of this enhanced level of contractile activity, incremental increases in the concentration of test compound or vehicle are introduced into the tissue bath. Contractile activity is measured for each compound or vehicle concentration during the last minute of a 30 minute challenge.
The isometric force developed by the bladder strips is measured using a […] to elicit 50% inhibition of pre-drug contractile activity (IC50 concentration) and is calculated from this concentration-response curve.

Series [2] has as its system hypertrophied bladder (detrusor) smooth muscle. Kind of series: Inhibition of spontaneous contractions in vivo, hypertrophied rat bladder model (cystometry). On the set-up: species or system Female Sprague-Dawley rats. The note with it: 10 mg/kg p.o., cystometry one hour after dosing. On the procedure: In addition, we tested the ability of compounds to inhibit the hyperactivity of hypertrophied bladder (detrusor) smooth muscle in conscious female rats with hypertrophied bladders and thereby alleviate urinary incontinence in rats according to the following protocol described by Malmgren et al. (J. Urol. 1989, 142, 1134.):
Female Sprague-Dawley rats, ranging in weight from 190-210 g are used. Up to 25 animals are prepared each time. After development of bladder hypertrophy 4-8 animals are used per test.
Compounds are dissolved in PEG-200 and administered by gastric gavage or intravenously in a volume of 5 mL/kg. For primary screening all drugs are administered at the arbitrary dose of 10 mg/kg p.o. to groups of 4 rats.
The animals are anesthetized with halothane. Through a midline incision the bladder and urethra are exposed and a ligature of 4-0 silk is tied around the proximal urethra in the presence of a stainless steel rod (1 mm diameter) to produce a partial occlusion. […] The following urodynamic variables are recorded: […]
The mean value of each variable is calculated before and after compound administration. For each compound the changes in the variables measured are compared to the values obtained before treatment and expressed as percent inhibition. The data are also subjected to 2-way analysis of variance to determine significant (p<0.05) changes in the variable measured. […]

Structures can show the parent of a compound that is named as a salt.

As to `CCC(C)(C)CNc1c(NCc2ccncc2)c(C)nn1C` [Example 9, N(3)-(2,2-Dimethyl-butyl)-2,5-dimethyl-N(4)-pyridin-4-ylmethyl-2H-pyrazole-3,4-diamine], in series [1], the IC50 – broadly, the concentration at which inhibition is half-maximal – is 19.2 µM.
Regarding `CCC(C)(C)CNc1c(NCc2ccccc2)c(C)nn1C` [Example 10, N(4)-Benzyl-N(3)-(2,2-dimethyl-butyl)-2,5-dimethyl-2H-pyrazole-3,4-diamine], the IC50 in series [1] turned out to be 19.9 µM.
Consider `Cc1nn(C)c(NCC(C)(C)C)c1NCc1ccc(C#N)cc1` [Example 2, 4-{[5-(2,2-Dimethyl-propylamino)-1,3-dimethyl-1H-pyrazol-4-ylamino]-methyl}-benzonitrile], for which the IC50 in series [1] was 8.26 µM.
As to `Cc1cc(C)c(CNc2c(C)nn(C)c2NCC(C)(C)C)c(C)c1` [Example 8, N(3)-(2,2-Dimethyl-propyl)-2,5-dimethyl-N(4)-(2,4,6-trimethyl-benzyl)-2H-pyrazole-3,4-diamine], the melting point (commonly the temperature of the solid-liquid transition) lay within 114 to 120 °C. Besides, the IC50 in series [1] is 17.8 µM.
Consider `Cc1nn(C)c(NCC(C)(C)C)c1Nc1ccc(Cl)cc1` [Example 14, N(4)-(4-Chloro-phenyl)-N(3)-(2,2-dimethyl-propyl)-2,5-dimethyl-2H-pyrazole-3,4-diamine], for which, in series [1], the IC50 was determined as 22.9 µM.
`Cc1nn(C)c(NCC(C)(C)C)c1NCc1ccc(F)cc1` [Example 3, N(3)-(2,2-Dimethyl-propyl)-N(4)-(4-fluoro-benzyl)-2,5-dimethyl-2H-pyrazole-3,4-diamine] came in with a melting point of 32 to 39 °C. In addition, the IC50 in series [1] amounted to 11.5 µM.
`Cc1cc(Cl)ccc1Nc1c(C)nn(C)c1NCC(C)(C)C` [Example 12, N(4)-(4-Chloro-2-methyl-phenyl)-N(3)-(2,2-dimethyl-propyl)-2,5-dimethyl-2H-pyrazole-3,4-diamine]: in series [1], the IC50 came to 12.5 µM.
In the case of `Cc1nn(C)c(NCC(C)(C)C)c1NCc1cccnc1` [Example 7, N(3)-(2,2-Dimethyl-propyl)-2,5-dimethyl-N(4)-pyridin-3-ylmethyl-2H-pyrazole-3,4-diamine], the IC50 in series [1] was 15.4 µM.
In the case of `Cc1nn(C)c(NCC(C)(C)C)c1NCc1ccncc1` [Example 1, N(3)-(2,2-Dimethyl-propyl)-2,5-dimethyl-N(4)-pyridin-4-ylmethyl-2H-pyrazole-3,4-diamine], the melting point lay within 88 to 90 °C. Further, the IC50 in series [1] turned out to be 4.9 µM. Besides, the “% Red (F): percent reduction in the total number of spontaneous contractions” value in series [2] is recorded as −36 ± 7%.
For the molecule `Cc1nn(C)c(NCC(C)(C)C)c1NCc1ccc(Cl)cc1Cl` [Example 4, N(4)-(2,4-Dichloro-benzyl)-N(3)-(2,2-dimethyl-propyl)-2,5-dimethyl-2H-pyrazole-3,4-diamine], the IC50 in series [1] came to 11.8 µM.
With `CCC(C)(C)CNc1c(NCc2ccc(C#N)cc2)c(C)nn1C` [Example 5, 4-{[5-(2,2-Dimethyl-butylamino)-1,3-dimethyl-1H-pyrazol-4-ylamino]-methyl}-benzonitrile], the IC50 in series [1] is 12.6 µM.
As for `Cc1nn(C)c(NCC(C)(C)C)c1Nc1ccccc1` [Example 11, N(3)-(2,2-Dimethyl-propyl)-2,5-dimethyl-N(4)-phenyl-2H-pyrazole-3,4-diamine], the half-maximal inhibitory concentration (IC50) in series [1] is 4.3 µM.
`Cc1nn(C)c(NCC(C)(C)C)c1Nc1ccc(C#N)cc1` [Example 13, 4-[5-(2,2-Dimethyl-propylamino)-1,3-dimethyl-1H-pyrazol-4-ylamino]-benzonitrile] gave a melting point of 131 to 134 °C. For the same molecule, in series [1], the IC50 was 17.9 µM.
`Cc1nn(C)c(NCC(C)(C)C)c1NCc1ccc(C#N)cc1` (as salt: tosylate) [Example 2, 4-{[5-(2,2-Dimethyl-propylamino)-1,3-dimethyl-1H-pyrazol-4-ylamino]-methyl}-benzonitrile] returned a melting point of 102 to 104 °C.
Turning to `Cc1nn(C)c(NCC(C)(C)C)c1NCc1ccc(F)cc1F` [Example 6, N(4)-(2,4-Difluoro-benzyl)-N(3)-(2,2-dimethyl-propyl)-2,5-dimethyl-2H-pyrazole-3,4-diamine], the IC50 in series [1] stood at 13.5 µM.
